{
  "source": "patent US12648565B2",
  "about": "“Post-emergence herbicide” (Belvedere Foliar LLC, priority 2017, dated 2026)",
  "key": {"[1]": {"system": "Brassica oleracea (Kale), Dichondra repens, Fragaria x ananassa (Strawberry), Pasture Blend 2, Rosemarina officinalis (Rosemary) (5, 11b, 13, 22, 23b)", "assay": "Trial 47: greenhouse foliar spray trial, visual toxicity scoring", "type": "in vivo", "text": "(§1) The majority of greenhouse trials conducted to date have been of one basic design: • 1. Samples of different species of flowering plant and grass are exposed to different formulations of the herbicide in accordance with some embodiments, prepared in a range of concentrations, in combination with potentially suitable adjuvants, and applied as an aquatic spray. Experimental plants are purchased either from a local nursery, grown from ornamental and weed seed packs, or grown from seeds of a custom blend prepared specifically for this project and listed in Table 4B. The experimental variable in a typical test is the molar mass concentration of the nutrient salt being examined. Other factors including pH, nitrogen source, and the amount and composition of surfactant or penetrant are constants within a trial except when one of these factors is itself the variable of interest in the experiment. Experiments are controlled unless irrelevant for a particular test. • 2. Standard techniques to reduce experimental error are employed including use of controls; standard spray application pressures; standardized growing conditions, growing medium, containers, and source irrigation water; and preparation and shipping of samples for laboratory analysis according to required standard laboratory protocols. • 3. Plants are sprayed with the experimental formulation, always in late afternoon (greenhouse tests), or in early morning (field tests), are observed over as many as several weeks, and their visible state of decline scored by the same examiner on a 9 points system relying on visual effects of toxicity. (Table 5.)\n(§2) Scores of half-value are also used: 0, 0.5, 1.0, 1.5, 2.0, 2.5, etc. • 4. The estimated successful herbicidal effectiveness of a formulation was determined from a combination of averaged and cumulative scores of 4.0 to 5.0 observed approximately 14 days or longer after application: “All leaves and flowers if present desiccated, browned, wilted, and stems or blades lodged; no green tissue visible; no regrowth from roots visible.”\nIn Trial 47, the herbicides comprised K-acetate; molarity range from 1.0-2.5; pH 5.03-5.05 with glacial acetic acid; proprietary adjuvant mix. Ref. Lab-2, p. 42. Test plants (ref Tables 4A and 4B):5, 11b, 13, 22, 23b\nS-1 corresponds to the highest concentration of active nutrient tested, S-4 corresponds to the lowest concentration of nutrient tested, and […] represent intermediate levels. The data are graphically presented below in FIG. 8."}, "[2]": {"system": "all weeds: Common purslane, Barnyard grass, Feather fingergrass", "conditions": "Day 4", "text": "as §1, with “Standard techniques to reduce experimental error are employed including use of controls; standard spray application pressures; standardized growing conditions, growing medium, containers, and source irrigation water; and preparation and shipping of samples for laboratory analysis according to required standard laboratory protocols. • 3.” left out, “(Table 5.)” left out"}, "[3]": {"system": "Pasture Blend 2, Gazania rigens, Fragraria x ananassa (Strawberry), Nemophila menziesii discoidalis (plants 22, 15, 13, 19)", "assay": "Trial 25: greenhouse foliar spray trial at four acidities, visual toxicity scoring", "type": "in vivo", "conditions": "molarity 1.5, test conclusion on Day 5", "text": "as §1, with “Standard techniques to reduce experimental error are employed including use of controls; standard spray application pressures; standardized growing conditions, growing medium, containers, and source irrigation water; and preparation and shipping of samples for laboratory analysis according to required standard laboratory protocols. • 3.” left out, “(Table 5.)” left out"}, "[4]": {"system": "Pasture Blend 2, Gazania rigens, Fragaria x ananassa (Strawberry), Nemophila menziesii discoidalis (plants 22, 15, 13, 19)", "assay": "Trial 22: greenhouse foliar spray trial, visual toxicity scoring", "type": "in vivo", "text": "as §1, §2\nIn Trial 22, the herbicides comprised K-acetate; molarity range 1.0-2.0; pH approx. 5.0 with succinic acid; proprietary adjuvant mix."}, "mature field weeds": {"system": "mature field weeds", "assay": "Trial 50: field test, visual toxicity scoring", "type": "in vivo", "text": "as §1, §2\nIn Trial 50, the herbicides comprised K-acetate; molarity range from 1.5, 2.0 and 2.5; pH 5.0 with citric acid; proprietary adjuvant mix. Ref. Lab-2, p. […] Test plants were mature field weeds.\nS-1 corresponds to the highest concentration of active nutrient tested, S-3 corresponds to the lowest concentration of nutrient tested, and S-2 represent an intermediate level. The data are graphically presented below in FIG. 11."}, "[5]": {"system": "Viola x wittockiana (Viola), Antirrhinum majus (Snapdragon), Cineraria meritima (Dusty miller), Cymbalaria aequitriloba (Cymbalaria)", "assay": "Trial 56: greenhouse foliar spray trial, visual toxicity scoring", "type": "in vivo", "conditions": "for phytotoxic control (in words): 1.5 molarity", "text": "as §1, §2"}, "[6]": {"system": "Pasture Blend 1, Pasture blend 2, Cineraria meritima (Dusty miller) (plants 21, 22, 10)", "assay": "Trial 14: greenhouse foliar spray trial, visual toxicity scoring", "type": "in vivo, pasture seed blend", "text": "as §1, §2\nIn Trial 14, the herbicides comprised K-acetate; molarity 2.0, 1.5, 1.0; pH approx. 5.3 by glacial acetic acid, and a proprietary adjuvant mix. Ref. Lab-1, p. 113. Test plants (ref. Tables 4A and 4B): P1, P2, P10."}, "[7]": {"system": "Pasture Blend 2, Allium ampeloprasum (Leek), Brassica oleracea (Kale), Lantana camara, Pisum sativum var. saccharatum (Snow pea) (P2, 1, 5, 16, 23)", "assay": "Trial 31A: greenhouse foliar spray trial, adjuvant mix A, visual toxicity scoring", "type": "in vivo", "conditions": "1.0M; by Day 20", "text": "(§3) The plants were numbered 22, 1, 5, 16, and 23, corresponding to Pasture blend 2, Brassica oleracea (var. Kale “Dinosaur”), Lantana camara (White Lantana), and Pisum sativum var. saccharatum (Snow pea) (Refer to Tables 4A and 4B for plant species identification). The only difference between Trials 31A and 31B was the composition of the proprietary adjuvant mix employed for each trial. The adjuvants for the “A” series were urea and […] silicone surfactant (Loveland Products). The adjuvants for the “B” series were urea and LI700 penetrant (Loveland Products). Solutions 1 A & B (S-1A, S-1B) correspond to a 2.0 molar solution of potassium acetate, pH 5.01 achieved with citric acid. S-2 is a similar solution of 1.5 molarity, pH 5.00. S-3 is a similar solution of 1.0 molarity, pH 4.97. (Refer to Tables 6A and 6B for trial solutions, details and results).\n(§4) The majority of greenhouse trials conducted to date have been of one basic design: • 1. […] Plants are sprayed with the experimental formulation, always in late afternoon (greenhouse tests), or in early morning (field tests), are observed over as many as several weeks, and their visible state of decline scored by the same examiner on a 9 points system relying on visual effects of toxicity. […]"}, "[8]": {"system": "Pasture Blend 2, Allium ampeloprasum (Leek), Brassica oleracea (Kale), Lantana camara, Pisum sativum var. saccharatum (Snow pea) (P2, 1, 5, 16, 23)", "assay": "Trial 31B: greenhouse foliar spray trial, adjuvant mix B, visual toxicity scoring", "type": "in vivo", "conditions": "2.0 M; day 4", "text": "as §3, §4"}},
  "data": [
    {"compound": "CC(=O)[O-].[K+]", "note": "[K-acetate, Potassium acetate]", "values": [
      {"measurement": "average toxicity score", "setting": "[1]; 1.0M, second value listed (days not given)", "result": 4.4},
      {"measurement": "average toxicity score", "setting": "[1]; 1.0M, third value listed (days not given)", "result": 4.8},
      {"measurement": "average toxicity score", "setting": "[1]; 2.5M, Day 5", "result": 4.5},
      {"measurement": "average toxicity score", "setting": "[1]; 2.5M, Day 9", "result": 4.8},
      {"measurement": "average toxicity score", "setting": "[1]; 2.5M, Day 14", "result": 4.9},
      {"measurement": "average toxicity score", "setting": "[1]; […] (so in the source), Day 5", "result": 4.0},
      {"measurement": "average toxicity score", "setting": "[1]; […] (so in the source), Day 9", "result": 4.8},
      {"measurement": "average toxicity score", "setting": "[1]; […] (so in the source), Day 14", "result": 5.0},
      {"measurement": "phytotoxic control (in words)", "setting": "[2]", "result": "strong to excellent phytotoxic control"},
      {"measurement": "phytotoxic effect (in words)", "setting": "[3]; pH 4.3", "result": "severe-to-fatal"},
      {"measurement": "phytotoxic effect (in words)", "setting": "[3]; pH 5.0", "result": "severe-to-fatal"},
      {"measurement": "phytotoxic results (in words)", "setting": "[4]; 1.0M, Days 3-7", "result": "strong phytotoxic results"},
      {"measurement": "average toxicity score", "setting": "[4]; 2.0M, Day 5", "result": 4.3},
      {"measurement": "average toxicity score", "setting": "[4]; 2.0M, Day 7", "result": 4.4},
      {"measurement": "average toxicity score", "setting": "[4]; […], Day 5", "result": 4.1},
      {"measurement": "average toxicity score", "setting": "[4]; […], Day 7", "result": 4.1},
      {"measurement": "average toxicity score", "setting": "mature field weeds; 2.0M, Day 3", "result": 3.6},
      {"measurement": "average toxicity score", "setting": "mature field weeds; 2.0M, Day 10", "result": 3.6},
      {"measurement": "average toxicity score", "setting": "mature field weeds; 2.5M, Day 3", "result": 2.8},
      {"measurement": "average toxicity score", "setting": "mature field weeds; 2.5M, Day 10", "result": 2.8},
      {"measurement": "phytotoxicity (in words)", "setting": "mature field weeds; 2.5 molarity", "result": "less phytotoxicity than lower molarities"},
      {"measurement": "appearance of treated plants", "setting": "[5]; 1.5 molar, last observed on Day 16", "result": "appeared dead with no regrowth"},
      {"measurement": "phytotoxic control (in words)", "setting": "[5]; Day 3", "result": "strong phytotoxic control"},
      {"measurement": "phytotoxic control (in words)", "setting": "[5]; Day 4 through Day 15", "result": "excellent phytotoxic control"},
      {"measurement": "average toxicity score", "setting": "[6]; 1.0M, Day 7 (so in the source)", "result": 4.3},
      {"measurement": "average toxicity score", "setting": "[6]; 1.0M, Day 11", "result": 4.0},
      {"measurement": "average toxicity score", "setting": "[6]; 2.0M, Day 1", "result": 4.0},
      {"measurement": "average toxicity score", "setting": "[6]; 2.0M, Day 11", "result": 4.7},
      {"measurement": "average toxicity score", "setting": "[6]; […], Day 1", "result": 4},
      {"measurement": "average toxicity score", "setting": "[6]; […], Day 11", "result": 4.8},
      {"measurement": "average toxicity score", "setting": "[7]", "result": 4.4},
      {"measurement": "toxicity level (in words)", "setting": "[8]", "result": "severe-to-fatal"}
    ]}
  ]
}
